Assay [1] is described as follows: Tasting of a sample of the purified compound (taste perceived, sweetness relative to sucrose). As to conditions: for sweetness relative to sucrose: tasted at 500 ppm in a water base, approximate. From the text:
The sweetness intensity perceived was weaker than the sweetness intensity perceived with mogroside V. However, the perception of licorice and lingering profile of isomogroside IVe was weaker than that of mogroside V (see table on following page).

Assay [2] in a line: Sensory profile scores (Sweet, Licorice, Lingering) compared with mogroside V.
[3] abbreviates: tasted at a concentration of 250 ppm.
[4] abbreviates: tasted at a concentration of 500 ppm in a water base.

As to “(1S,4R,9beta,24R)-1-{[6-O-(beta-D-glucopyranosyl)-beta-D-glucopyranosyl]oxy}-25-hydroxy-9-(hydroxymethyl)-10,14-dimethyl-11-oxo-4,9-cyclo-9,10-secocholest-5-en-24-yl beta-D-glucopyranosyl-(1→2)-[beta-D-glucopyranosyl-(1→6)]-beta-D-glucopyranoside [Compound 5a]”, the taste perceived result in assay [1] (setting [3]) is reported as “No taste”. As to `C[C@H](C(O)C[C@@H](O[C@@H]1O[C@H](CO[C@@H]2O[C@H](CO)[C@@H](O)[C@H](O)[C@H]2O)[C@@H](O)[C@H](O)[C@H]1O)C(C)(C)O)[C@H]1CC[C@@]2(C)[C@@H]3CC=C4[C@@H](CC[C@H](O[C@@H]5O[C@H](CO)[C@@H](O)[C@H](O)[C@H]5O)C4(C)C)[C@]3(C)[C@H](O)C[C@]12C` (stereo partly drawn) [Compound 2a, (1S,4R,9beta,11alpha,24R)-1-(beta-D-glucopyranosyloxy)-11,22,25-trihydroxy-9,10,14-trimethyl-4,9-cyclo-9,10-secocholest-5-en-24-yl 6-O-beta-D-glucopyranosyl-beta-D-glucopyranoside], the “sweetness relative to sucrose” value in assay [1] is recorded as 20-50 times sweeter than sucrose. Moreover, the taste perceived result in assay [1] (setting [4]) was “weak sweet taste”. In assay [2] (Dosage 250 ppm), `C[C@H](CC[C@@H](O[C@@H]1O[C@H](CO[C@@H]2O[C@H](CO)[C@@H](O)[C@H](O)[C@H]2O)[C@@H](O)[C@H](O)[C@H]1O[C@@H]1O[C@H](CO)[C@@H](O)[C@H](O)[C@H]1O)C(C)(C)O)[C@H]1CC[C@@]2(C)[C@@H]3CC=C4[C@@H](CC[C@H](O[C@@H]5O[C@H](CO[C@@H]6O[C@H](CO)[C@@H](O)[C@H](O)[C@H]6O)[C@@H](O)[C@H](O)[C@H]5O)C4(C)C)[C@]3(C)[C@H](O)C[C@]12C` [Mogroside V, reference compound] gave a Licorice of 3.8, a Lingering of 4.9 and a Sweet of 6.0. In addition, in assay [2] (Dosage 500 ppm), the Licorice turned out to be 4.2, the Lingering is 5.2 and the Sweet stood at 7.2.

On to `CC(C)(O)[C@@H](CC[C@](C)(O)[C@H]1CC[C@@]2(C)[C@@H]3CC=C4[C@@H](CC[C@H](O[C@@H]5O[C@H](CO)[C@@H](O)[C@H](O)[C@H]5O)C4(C)C)[C@]3(C)C(=O)C[C@]12C)O[C@@H]1O[C@H](CO[C@@H]2O[C@H](CO)[C@@H](O)[C@H](O)[C@H]2O)[C@@H](O)[C@H](O)[C@H]1O` [Compound 8a, (1S,4R,9beta,24R)-1-(beta-D-glucopyranosyloxy)-20,25-dihydroxy-9,10,14-trimethyl-11-oxo-4,9-cyclo-9,10-secocholest-5-en-24-yl 6-O-beta-D-glucopyranosyl-beta-D-glucopyranoside], for which the taste perceived result in assay [1] (setting [3]) is on record as “No taste”.

On to `CC(C)(O)[C@@H](CC[C@](C)(O)[C@H]1CC[C@@]2(C)[C@@H]3CC=C4[C@@H](CC[C@H](O[C@@H]5O[C@H](CO[C@@H]6O[C@H](CO)[C@@H](O)[C@H](O)[C@H]6O)[C@@H](O)[C@H](O)[C@H]5O)C4(C)C)[C@]3(C)[C@H](O)C[C@]12C)O[C@@H]1O[C@H](CO[C@@H]2O[C@H](CO)[C@@H](O)[C@H](O)[C@H]2O)[C@@H](O)[C@H](O)[C@H]1O[C@@H]1O[C@H](CO)[C@@H](O)[C@H](O)[C@H]1O` [Compound 7a, (1S,4R,9beta,11alpha,24R)-1-{[6-O-(beta-D-glucopyranosyl)-beta-D-glucopyranosyl]oxy}-11,20,25-trihydroxy-9,10,14-trimethyl-4,9-cyclo-9,10-secocholest-5-en-24-yl beta-D-glucopyranosyl-(1→2)-[beta-D-glucopyranosyl-(1→6)]-beta-D-glucopyranoside], for which, in assay [1] (setting [3]), the taste perceived result is listed as “No taste”. For `C[C@H](CC[C@@H](O[C@@H]1O[C@H](CO[C@@H]2O[C@H](CO)[C@@H](O)[C@H](O)[C@H]2O)[C@@H](O)[C@H](O)[C@H]1O[C@@H]1O[C@H](CO)[C@@H](O)[C@H](O)[C@H]1O)C(C)(C)O)[C@H]1CC[C@@]2(C)[C@@H]3CC=C4[C@@H](CC[C@H](O[C@@H]5O[C@H](CO[C@@H]6O[C@H](CO)[C@@H](O)[C@H](O)[C@H]6O)[C@@H](O)[C@H](O)[C@H]5O)C4(C)C)[C@]3(C=O)C(=O)C[C@]12C` [Compound 6a, (1S,4R,9beta,24R)-9-formyl-1-{[6-O-(beta-D-glucopyranosyl)-beta-D-glucopyranosyl]oxy}-25-hydroxy-10,14-dimethyl-11-oxo-4,9-cyclo-9,10-secocholest-5-en-24-yl beta-D-glucopyranosyl-(1→2)-[beta-D-glucopyranosyl-(1→6)]-beta-D-glucopyranoside], the “sweetness relative to sucrose” value in assay [1] is listed as 100-200 times sweeter than sucrose. Besides, the taste perceived result in assay [1] (setting [4]) is “strong sweet taste”.

For “[(1S,4R,9beta,10R,24R)-24-{[beta-D-glucopyranosyl-(1→6)-beta-D-glucopyranosyl-(1→6)-beta-D-glucopyranosyl]oxy}-1,25-dihydroxy-9,14-dimethyl-11-oxo-4,9-cyclo-9,10-secocholest-5-en-10-yl]methyl beta-D-glucopyranosyl-(1→6)-[beta-D-glucopyranosyl-(1→4)-beta-D-glucopyranosyl-(1→2)]-beta-D-glucopyranoside [Compound 10a]”, the taste perceived result in assay [1] (setting [3]) is recorded as “No taste”. On the same count and under the same terms, as for `C[C@H](CC[C@@H](O[C@@H]1O[C@H](CO[C@@H]2O[C@H](CO)[C@@H](O)[C@H](O)[C@H]2O)[C@@H](O)[C@H](O)[C@H]1O[C@@H]1O[C@H](CO)[C@@H](O)[C@H](O)[C@H]1O)C(C)(C)O)[C@H]1CC[C@@]2(C)[C@@H]3CC=C4[C@@H](CC[C@H](O[C@@H]5O[C@H](CO[C@@H]6O[C@H](CO)[C@@H](O)[C@H](O)[C@H]6O)[C@@H](O)[C@H](O)[C@H]5O[C@@H]5O[C@H](CO)[C@@H](O)[C@H](O)[C@H]5O)C4(C)C)[C@]3(C)[C@H](O)C[C@]12C` (stereo in doubt) [Compound 14a, (1S,4R,9beta,11beta,24R)-1-{[beta-D-glucopyranosyl-(1→2)-[beta-D-glucopyranosyl-(1→6)]-beta-D-glucopyranosyl]oxy}-11,25-dihydroxy-9,10,14-trimethyl-4,9-cyclo-9,10-secocholest-5-en-24-yl beta-D-glucopyranosyl-(1→2)-[beta-D-glucopyranosyl-(1→6)]-beta-D-glucopyranoside], the entry is “No taste”; as for “(1S,4R,9beta,11alpha,24R)-24-{[6-O-(beta-D-glucopyranosyl)-beta-D-glucopyranosyl]oxy}-11,22,25-trihydroxy-9,10,14-trimethyl-4,9-cyclo-9,10-secocholest-5-en-1-yl 4-O-beta-D-glucopyranosyl-beta-D-glucopyranoside [Compound 3a]”, “No taste”.

Consider `C[C@H](CC[C@@H](O[C@@H]1O[C@H](CO[C@@H]2O[C@H](CO)[C@@H](O)[C@H](O)[C@H]2O)[C@@H](O)[C@H](O)[C@H]1O[C@@H]1O[C@H](CO)[C@@H](O)[C@H](O)[C@H]1O)C(C)(C)O)[C@H]1CC[C@@]2(C)[C@@H]3C(O)C=C4[C@@H](CC[C@H](O[C@@H]5O[C@H](CO[C@@H]6O[C@H](CO)[C@@H](O)[C@H](O)[C@H]6O)[C@@H](O)[C@H](O)[C@H]5O)C4(C)C)[C@]3(C)[C@H](O)C[C@]12C` (stereo partly drawn) [Compound 4a, (1S,4R,9beta,11alpha,24R)-1-{[6-O-(beta-D-glucopyranosyl)-beta-D-glucopyranosyl]oxy}-7,11,25-trihydroxy-9,10,14-trimethyl-4,9-cyclo-9,10-secocholest-5-en-24-yl beta-D-glucopyranosyl-(1→2)-[beta-D-glucopyranosyl-(1→6)]-beta-D-glucopyranoside], for which the “sweetness relative to sucrose” value in assay [1] was 30-60 times sweeter than sucrose. The taste perceived result in assay [1] (setting [4]) was “weak sweet taste”. For the compound `C[C@H](C(O)C[C@@H](O[C@@H]1O[C@H](CO[C@@H]2O[C@H](CO)[C@@H](O)[C@H](O)[C@H]2O)[C@@H](O)[C@H](O)[C@H]1O)C(C)(C)O)[C@H]1CC[C@@]2(C)[C@@H]3CC=C4[C@@H](CC[C@H](O[C@@H]5O[C@H](CO)[C@@H](O)[C@H](O)[C@H]5O)C4(C)C)[C@]3(C)[C@@H](O)C[C@]12C` (stereo partly drawn) [Compound 2b, (1S,4R,9beta,11beta,24R)-1-(beta-D-glucopyranosyloxy)-11,22,25-trihydroxy-9,10,14-trimethyl-4,9-cyclo-9,10-secocholest-5-en-24-yl 6-O-beta-D-glucopyranosyl-beta-D-glucopyranoside], in assay [1] (setting [3]), the taste perceived result is “No taste”. On the same count and under the same terms, as for `C[C@H](C(O)C[C@@H](O[C@@H]1O[C@H](CO[C@@H]2O[C@H](CO)[C@@H](O)[C@H](O)[C@H]2O)[C@@H](O)[C@H](O)[C@H]1O)C(C)(C)O)[C@H]1CC[C@@]2(C)[C@@H]3CC=C4[C@@H](CC[C@H](O[C@@H]5O[C@H](CO[C@@H]6O[C@H](CO)[C@@H](O)[C@H](O)[C@H]6O)[C@@H](O)[C@H](O)[C@H]5O)C4(C)C)[C@]3(C)[C@H](O)C[C@]12C` (stereo partly drawn) [Compound 1a, (1S,4R,9beta,11alpha,24R)-1-{[6-O-(beta-D-glucopyranosyl)-beta-D-glucopyranosyl]oxy}-11,22,25-trihydroxy-9,10,14-trimethyl-4,9-cyclo-9,10-secocholest-5-en-24-yl 6-O-beta-D-glucopyranosyl-beta-D-glucopyranoside], the entry is “No taste”; as for `CC(C)(O)[C@@H](CC[C@](C)(O)[C@H]1CC[C@@]2(C)[C@@H]3CC=C4[C@@H](CC[C@H](O[C@@H]5O[C@H](CO[C@@H]6O[C@H](CO)[C@@H](O)[C@H](O)[C@H]6O)[C@@H](O)[C@H](O)[C@H]5O[C@@H]5O[C@H](CO)[C@@H](O)[C@H](O)[C@H]5O)C4(C)C)[C@]3(C)C(=O)C[C@]12C)O[C@@H]1O[C@H](CO[C@@H]2O[C@H](CO)[C@@H](O)[C@H](O)[C@H]2O)[C@@H](O)[C@H](O)[C@H]1O` [Compound 9a, (1S,4R,9beta,24R)-24-{[6-O-(beta-D-glucopyranosyl)-beta-D-glucopyranosyl]oxy}-20,25-dihydroxy-9,10,14-trimethyl-11-oxo-4,9-cyclo-9,10-secocholest-5-en-1-yl beta-D-glucopyranosyl-(1→2)-[beta-D-glucopyranosyl-(1→6)]-beta-D-glucopyranoside], “No taste”.

The values are drawn from patent US12227539B2, “Mogroside compounds and uses thereof” (Firmenich SA, priority 2019, dated 2025).
